Test results: the supplement of paper PMC11451515

Test system: P12-Ichikawa
Test: cell viability relative to DMSO control; higher = less cytotoxic
Conditions: 48 h
Procedure, shortened: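 Viability, reported as a per-plate percentage of DMSO wells with cell-free wells as background, came from CellTiter-Glo One luminescence. Reading took place after 48 h at 37°C. Before that, NOMO1 or SEM (500 cells/well) or P12-Ichikawa (1000 cells/well) leukemia cells, adapted for at least four passages in each medium, were seeded in 1536-well plates (5 μl) and pin-dosed with library compounds in DMSO, 47 μM to 0.79 nM over 11 threefold points.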

[1] = HPLM + 10% dialyzed FBS, 0.000781 µM
[2] = HPLM + 10% dialyzed FBS, 0.00234 µM
[3] = HPLM + 10% dialyzed FBS, 0.00702 µM
[4] = HPLM + 10% dialyzed FBS, 0.0211 µM
[5] = HPLM + 10% dialyzed FBS, 0.0632 µM
[6] = HPLM + 10% dialyzed FBS, 0.19 µM
[7] = HPLM + 10% dialyzed FBS, 0.569 µM
[8] = HPLM + 10% dialyzed FBS, 1.71 µM
[9] = HPLM + 10% dialyzed FBS, 5.12 µM
[10] = HPLM + 10% dialyzed FBS, 15.4 µM
[11] = HPLM + 10% dialyzed FBS, 46.1 µM
[12] = RPMI 5 mM glucose + 10% FBS, 0.000781 µM
[13] = RPMI 5 mM glucose + 10% FBS, 0.00234 µM
[14] = RPMI 5 mM glucose + 10% FBS, 0.00702 µM
[15] = RPMI 5 mM glucose + 10% FBS, 0.0211 µM
[16] = RPMI 5 mM glucose + 10% FBS, 0.0632 µM
[17] = RPMI 5 mM glucose + 10% FBS, 0.19 µM
[18] = RPMI 5 mM glucose + 10% FBS, 0.569 µM
[19] = RPMI 5 mM glucose + 10% FBS, 1.71 µM
[20] = RPMI 5 mM glucose + 10% FBS, 5.12 µM
[21] = RPMI 5 mM glucose + 10% FBS, 15.4 µM
[22] = RPMI 5 mM glucose + 10% FBS, 46.1 µM
[23] = RPMI 5 mM glucose + 10% dialyzed FBS, 0.000781 µM
[24] = RPMI 5 mM glucose + 10% dialyzed FBS, 0.00234 µM
[25] = RPMI 5 mM glucose + 10% dialyzed FBS, 0.00702 µM
[26] = RPMI 5 mM glucose + 10% dialyzed FBS, 0.0211 µM
[27] = RPMI 5 mM glucose + 10% dialyzed FBS, 0.0632 µM
[28] = RPMI 5 mM glucose + 10% dialyzed FBS, 0.19 µM
[29] = RPMI 5 mM glucose + 10% dialyzed FBS, 0.569 µM
[30] = RPMI 5 mM glucose + 10% dialyzed FBS, 1.71 µM
[31] = RPMI 5 mM glucose + 10% dialyzed FBS, 5.12 µM
[32] = RPMI 5 mM glucose + 10% dialyzed FBS, 15.4 µM
[33] = RPMI 5 mM glucose + 10% dialyzed FBS, 46.1 µM

Structure (SMILES) | cell viability [1] [%] | cell viability [2] [%] | cell viability [3] [%] | cell viability [4] [%] | cell viability [5] [%] | cell viability [6] [%] | cell viability [7] [%] | cell viability [8] [%] | cell viability [9] [%] | cell viability [10] [%] | cell viability [11] [%] | cell viability [12] [%] | cell viability [13] [%] | cell viability [14] [%] | cell viability [15] [%] | cell viability [16] [%] | cell viability [17] [%] | cell viability [18] [%] | cell viability [19] [%] | cell viability [20] [%] | cell viability [21] [%] | cell viability [22] [%] | cell viability [23] [%] | cell viability [24] [%] | cell viability [25] [%] | cell viability [26] [%] | cell viability [27] [%] | cell viability [28] [%] | cell viability [29] [%] | cell viability [30] [%] | cell viability [31] [%] | cell viability [32] [%] | cell viability [33] [%]
C[S+](=O)([O-])c1cccc(CNc2nc(Nc3ccc4c(c3)CCC(=O)N4)ncc2C(F)(F)F)c1 | 114 | 122 | 112 | 111 | 110 | 107 | 106 | 102 | 106 | 96.7 | 14.3 | 119 | 120 | 113 | 120 | 108 | 111 | 113 | 103 | 101 | 89.9 | 25.9 | 110 | 120 | 120 | 113 | 111 | 110 | 106 | 114 | 104 | 94.3 | 32.3
CC(C)C[C@H](NC(=O)CNC(=O)c1cc(Cl)ccc1Cl)B(O)O | 91 | 98.3 | 99.7 | 14.2 | 106 | 78 | 6.35 | 5.51 | 4.53 | 3 | 2.23 | 78.7 | 89 | 85.8 | 11.8 | 102 | 73.1 | 6.15 | 5.14 | 4.49 | 3.12 | 1.86 | 88.7 | 88.6 | 91.2 | 21.6 | 100 | 88 | 6.52 | 5.26 | 4.56 | 2.86 | 1.63
C[C@]12CC[C@H]3[C@@H](C\C=C/4C[C@@H](O)CC[C@]34C)[C@@H]1CCC2=O | 111 | 110 | 117 | 108 | 110 | 115 | 107 | 111 | 58 | 102 | 96.2 | – | – | – | – | – | – | – | – | – | – | – | 111 | 109 | 115 | 108 | 122 | 114 | 105 | 102 | 99.1 | 101 | 98.5
CCC\C1=C\C(=O)NC(=S)N1 | 99.4 | 107 | 109 | 111 | 120 | 120 | 94.2 | 110 | 87.6 | 38.4 | 8.65 | 107 | 112 | 110 | 118 | 119 | 112 | 85 | 104 | 78.9 | 40.8 | 7.58 | 102 | 105 | 103 | 115 | 118 | 119 | 99.7 | 113 | 83.9 | 68.3 | 9.42
OC(=O)C(CC/1=C/C(=O)NC2=CC=CC=C12)NC(=O)C3=CC=C(Cl)C=C3 (configuration not stated) | 111 | 118 | 120 | 123 | 123 | 125 | 124 | 128 | 122 | 126 | 125 | 109 | 115 | 119 | 117 | 131 | 122 | 128 | 121 | 128 | 132 | 141 | 120 | 122 | 129 | 130 | 139 | 135 | 135 | 128 | 130 | 124 | 133
CN1CCN2c3ncccc3Cc3ccccc3C2C1 (configuration not stated) | 122 | 119 | 113 | 120 | 122 | 115 | 114 | 119 | 114 | 108 | 111 | 134 | 118 | 124 | 132 | 129 | 125 | 135 | 121 | 117 | 112 | 101 | 125 | 118 | 113 | 120 | 121 | 118 | 128 | 115 | 111 | 108 | 100
CN1CCC[C@@H]1CCO[C@](C)(c1ccccc1)c1ccc(Cl)cc1 | 94.5 | 100 | 99.3 | 113 | 105 | 104 | 104 | 107 | 112 | 109 | 97.2 | 97.8 | 104 | 106 | 104 | 108 | 98.1 | 104 | 114 | 100 | 119 | 101 | 93.9 | 101 | 111 | 106 | 103 | 100 | 105 | 102 | 104 | 108 | 90
NCCCCNCCCN | 108 | 108 | 115 | 108 | 110 | 121 | 115 | 116 | 109 | 104 | 41.4 | 110 | 109 | 113 | 114 | 114 | 118 | 123 | 118 | 105 | 73.7 | 3.31 | 101 | 102 | 98.4 | 116 | 104 | 111 | 115 | 111 | 115 | 87 | 6.5
CC[C@@]1(O)C(=O)OC\C2=C1\C=C\3N(CC4=C3N=C5C=CC=CC5=C4)C2=O | 122 | 120 | 107 | 86.1 | 13.3 | 10.1 | 7.26 | 5.09 | 4.83 | 3.78 | 5.54 | 115 | 113 | 116 | 69.9 | 10.9 | 7.97 | 6.35 | 4.58 | 3.68 | 3.91 | 6.1 | 115 | 115 | 107 | 59.8 | 16.8 | 9.84 | 7.6 | 5.62 | 4.44 | 4.32 | 6.06
COc1ccc2c(c1)c(CC(=O)OCC(=O)O)c(C)n2C(=O)c1ccc(Cl)cc1 | 119 | 126 | 118 | 113 | 116 | 114 | 112 | 118 | 112 | 116 | 108 | – | – | – | – | – | – | – | – | – | – | – | 120 | 125 | 116 | 139 | 116 | 119 | 120 | 113 | 115 | 113 | 107
Nc1nnc(-c2cccc(Cl)c2Cl)c(N)n1 | 87.5 | 105 | 104 | 10.7 | 107 | 106 | 99.7 | 104 | 102 | 112 | 102 | 90.2 | 98.1 | 95.8 | 11.9 | 100 | 106 | 99.6 | 90.5 | 102 | 102 | 91 | 83.8 | 88.4 | 87.7 | 29.6 | 95 | 97.7 | 99.4 | 97.5 | 98.7 | 105 | 92.1
Cn1c(=O)n(-c2ccc(C(C)(C)C#N)cc2)c2c3cc(-c4cnc5ccccc5c4)ccc3ncc21 | 108 | 120 | 113 | 105 | 110 | 98 | 92.1 | 43.2 | 18.2 | 13.3 | 17.6 | 114 | 108 | 106 | 90.6 | 88.2 | 82.7 | 67.6 | 67.2 | 42.1 | 10.7 | 12.1 | 110 | 117 | 111 | 105 | 101 | 82 | 81.1 | 57 | 33.4 | 15.3 | 16.1
Nc1cccc2c1CN([C@H]1CCC(=O)NC1=O)C2=O | 115 | 112 | 114 | 117 | 109 | 114 | 107 | 103 | 107 | 88.8 | 96.7 | 109 | 124 | 118 | 118 | 124 | 113 | 116 | 99.6 | 114 | 80.8 | 92.7 | 112 | 114 | 105 | 107 | 107 | 107 | 97.4 | 102 | 94.8 | 63.3 | 80.8
COc1ccc(Nc2nccc(NCCO)n2)cc1 | 73.7 | 83.2 | 82.1 | 84.8 | 88.2 | 85.2 | 81.9 | 81.5 | 76.7 | 89.5 | 80.8 | 72 | 81.3 | 79.4 | 86.8 | 89.8 | 81.5 | 76.8 | 73.6 | 79 | 85 | 85.3 | 69 | 76.7 | 78 | 81.5 | 78.9 | 81.7 | 79.9 | 81.9 | 78.4 | 79.9 | 77.9
COc1cc2nc(-c3cc(F)ccc3O)nc(N[C@@H]3CNC[C@H]3C(C)(C)O)c2cc1OC | 104 | 104 | 106 | 110 | 110 | 109 | 114 | 120 | 80.5 | 76.6 | 56.5 | 108 | 104 | 111 | 111 | 118 | 128 | 119 | 129 | 83.5 | 67.8 | 44.3 | 116 | 123 | 117 | 113 | 121 | 116 | 124 | 115 | 69.6 | 48.5 | 37.5
Cn1cc(/C=C2\C(=O)Nc3cccnc32)c2ccccc21 | 116 | 124 | 127 | 121 | 133 | 133 | 124 | 134 | 126 | 15.5 | 16.6 | – | – | – | – | – | – | – | – | – | – | – | – | – | – | – | – | – | – | – | – | – | –
CCCCC(C=O)NC(=O)C(CC(C)C)NC(=O)OCc1ccccc1 (configuration not stated) | 90.9 | 94.3 | 95.8 | 90.7 | 95.6 | 91.8 | 91.1 | 85.7 | 80.6 | 81 | 70.5 | 88 | 91.3 | 90.3 | 82.1 | 91.6 | 84.2 | 80.6 | 82.3 | 78.3 | 73.7 | 51.7 | 86.1 | 85.4 | 83 | 86.9 | 79.6 | 84.8 | 81.3 | 76.7 | 71.3 | 70.6 | 53.7
